Experimental data taken from US9249159B2, “Composition for treating hepatitis C virus, regulating phosphorylation of replicase” (Industry-Academic Cooperation Foundation, Yonsei University, priority 2011, dated 2016).
Entries after “also recorded” stand apart in the source; their conditions may differ.

Tests used:
[1] = tested on: genotype 1b HCV subgenomic replicon (R-1 cell line); experiment: HCV replication (HCV RNA by real-time RT-PCR, NS5B protein by Western blot) in R-1 subgenomic replicon cells; format: cell-based, hepatitis C virus genotype 1b; settings: 48 hours
Excerpt: In order to check a PRK2 phosphorylation inhibition effect of the novel inhibitors obtained in Example 1, R-1 cell line harboring HCV subgenomic replicons was used.
The R-1 cell line was comprised of cis-acting RNA elements of 5′ and 3′-end untranslated regions (UTR) essential for replication of HCV RNA, a selection marker inserted to select a replicated RNA into a portion from which a structural protein coding site was removed, and a non-structural protein (NS3-NS5B)-coding gene required for replication. In the replicon, the selection marker was expressed by the HCV 5′-UTR and internal ribosome entry site (IRES) as a part of a coding gene of a core protein as a structural protein and capsid protein, and HCV non-structural proteins were expressed by IRES of EMCV. In order to obtain replicon cells, a HCV subgenomic replicon RNA was obtained by means of in vitro transcription by using a T7 RNA polymerase, free ribonucleotide was removed by using a spin column, and introduced into a hepatocellular carcinoma cell line by electroporation. In the presence of G418, a stable cell line, i.e. a cell line showing a resistance to G418 through replication of HCV subgenome, was obtained. Expression of the HCV non-structural proteins in this cell line was analyzed by Western blot to confirm that replication was being carried out, and the R-1 cell line was constructed. It was observed that an HCV RNA copy number was about 10^7 copies/mL by a quantitative real-time PCR analysis using a TaqMan probe. The R-1 cell line was a cell line in which HCV RNA replication was being carried out, and thus it could be used to evaluate an HCV replication inhibition effect of a PRK2 activity inhibitor.
Then, after the R-1 cell line was treated with each of 5 screened PRK2 inhibitors, HA1077 currently and clinically used as a PRK2 activity inhibitor, and Y27632 having a PRK2 activity inhibition effect at a final concentration of 20 μM for 48 hours, levels of HCV NS5B protein and HCV RNA in cell lysates (50 μg) were analyzed by Western blot and real-time RT-PCR.
(§1) To do so, after the two cell lines were treated with the compound #17 at higher concentrations (60 and 100 μM) than 20 μM for 48 hours, an HCV RNA genome level was checked by a real-time RT-PCR analysis. A value was a mean±standard deviation (SD) of three independent measurements. HCV RNA titer was quantified by real-time PCR analysis. Three independent experiments were performed in triplicate.
5 derivatives (#18 to #22: refer to FIG. 2) were produced based on the inhibitor #17 showing the best effect. After the R-1 cell line was treated with each of these inhibitors or HA1077 and Y27632 at a final concentration of 20 μM for 48 hours, an HCV RNA genome level was checked by a real-time RT-PCR analysis and expressed in % with respect to a control treated with DSMO. Three independent experiments were conducted repeatedly three times. Data were expressed by mean±SD of the three experiments.
Total RNA was extracted from R-1 or HCV (JFH1)-infected cells using TRIzol LS reagent (Invitrogen, Carlsbad, Calif., USA) and purified according to the manufacturer's instructions. HCV RNA levels were quantified by RT-PCR using a primer pair and TaqMan probe targeting a region within the HCV 5′-UTR as described previously. Cellular glyceraldehyde-3-phosphate dehydrogenase was used as an internal control. Assays were performed using the DyNAmo Probe 2-step qRT-PCR Kit (Finnzymes, Espoo, Finland) and a CHROMO4 continuous fluorescence detector (Bio-Rad, Hercules, Calif., USA), according to the manufacturer's instructions.
Therefore, anti-HCV activity of 17-DMAG in the R-1 cell was tested at a level lower than 50 nM. To do so, the R-1 cell was treated with a vehicle (0.25% DMSO) or 17-DMAG for 72 hours and the cell lysates (50 μg) and antibodies specific to the proteins were immunoblotted to measure levels of the proteins. An anti-α-tubulin antibody (lower end panel) was used as an internal loading control. […]

[2] = tested on: genotype 2a HCV (JFH1)-infected Huh7 cells; experiment: HCV RNA level in Huh7 cells infected with HCV (JFH1); format: cell-based, hepatitis C virus genotype 2a; settings: Huh7 cell infected with HCV (JFH-1), 60 and 100 μM, 48 hours
Method: as §1
Full-length, infectious HCV RNA of the genotype 2a HCV clone JFH1 was prepared by in vitro transcription using the MEGAscript T7 kit (Ambion, Austin, Tex., USA) and electroporated into Huh7 cells as described previously. Briefly, at 72 h post electroporation, culture medium was collected, cleared by low-speed centrifugation, and passed through a 0.45-μm filter (Millipore, Billerica, Mass., USA) before being used for infection of Huh7 cells. Cells were infected with HCV at a multiplicity of infection of 0.3 by adsorption for 3 h with periodic rocking, then washed three times with phosphate-buffered saline (PBS) and maintained in complete DMEM. […]
Total RNA was extracted from R-1 or HCV (JFH1)-infected cells using TRIzol LS reagent (Invitrogen, Carlsbad, Calif., USA) and purified according to the manufacturer's instructions. HCV RNA levels were quantified by RT-PCR using a primer pair and TaqMan probe targeting a region within the HCV 5′-UTR as described previously. […] Assays were performed using the DyNAmo Probe 2-step qRT-PCR Kit (Finnzymes, Espoo, Finland) and a CHROMO4 continuous fluorescence detector (Bio-Rad, Hercules, Calif., USA), according to the manufacturer's instructions.
In order to analyze whether or not 17-DMAG can inhibit replication in a cell infected with HCV, an experiment was carried out with the genotype 2a HCV infectious clone JFH1, which produces infectious virions in Huh7 or Huh7-derived cell lines. […] After 72 hours, total cellular RNA was extracted and HCV remaining in the infected cell was analyzed by quantitative RT-PCR.

R-1 cell = experiment: Cytotoxicity / cell viability in R-1 cell; format: cell-based, human; settings: R-1 cell, 100 μM
Method: (§2) Cytotoxicity of 17-DMAG was measured by using a reagent MTS [3-(4,5-dimethylthiazol-2-yl)-5-(3-carboxylmethoxyphenyl)-2-(4-sulfophenyl)-2H-tetrazolium] (Promega, Madison, Wis., USA) according to the protocols of the manufacturer. The experiment was carried out as follows.
(§3) Huh7 or R-1 cells (2×10^4 cell/well) were seeded in a 96-well plate and treated with 17-DMAG at different concentrations for 72 hours. Then, the culture medium was removed and a MTS substrate dissolved in the culture medium containing 5% FBS was added to each well of the plate. The cells were cultured at 37° C. for 1 hour, and absorbance at 490 nm was read in a 96-well micro plate automatic reading system using GloMax-Multi detection system (Promega).
(§4) An experiment was carried out to check whether or not 17-DMAG inhibited virus RNA replication in an R-1 cell in which autonomous replication of a genotype 1b HCV subgenomic replicon RNA was maintained. Before antiviral activity of 17-DMAG was evaluated, an MTS assay was carried out to evaluate whether or not the drug interfered with cell viability. To be specific, the R-1 cell loaded with a selective HCV subgenomic replicon (upper diagram) and its parental cell line Huh7 were treated with 17-DMAG at a certain concentration for 72 hours, and cell viability was evaluated by the MTS assay.

Huh7 cell = experiment: Cytotoxicity / cell viability (MTS) in Huh7 cell; format: cell-based, human; settings: 100 μM
Method: as §2, §3, §4

recombinant active PRK2 = recombinant active PRK2 (Homo sapiens, UniProt Q16513); experiment: In vitro kinase assay: recombinant PRK2 phosphorylating HCV NS5B; format: biochemical; settings: gamma-32P ATP and 100 μM ATP, autoradiography
Chain of recombinant active PRK2 (Q16513 whole entry): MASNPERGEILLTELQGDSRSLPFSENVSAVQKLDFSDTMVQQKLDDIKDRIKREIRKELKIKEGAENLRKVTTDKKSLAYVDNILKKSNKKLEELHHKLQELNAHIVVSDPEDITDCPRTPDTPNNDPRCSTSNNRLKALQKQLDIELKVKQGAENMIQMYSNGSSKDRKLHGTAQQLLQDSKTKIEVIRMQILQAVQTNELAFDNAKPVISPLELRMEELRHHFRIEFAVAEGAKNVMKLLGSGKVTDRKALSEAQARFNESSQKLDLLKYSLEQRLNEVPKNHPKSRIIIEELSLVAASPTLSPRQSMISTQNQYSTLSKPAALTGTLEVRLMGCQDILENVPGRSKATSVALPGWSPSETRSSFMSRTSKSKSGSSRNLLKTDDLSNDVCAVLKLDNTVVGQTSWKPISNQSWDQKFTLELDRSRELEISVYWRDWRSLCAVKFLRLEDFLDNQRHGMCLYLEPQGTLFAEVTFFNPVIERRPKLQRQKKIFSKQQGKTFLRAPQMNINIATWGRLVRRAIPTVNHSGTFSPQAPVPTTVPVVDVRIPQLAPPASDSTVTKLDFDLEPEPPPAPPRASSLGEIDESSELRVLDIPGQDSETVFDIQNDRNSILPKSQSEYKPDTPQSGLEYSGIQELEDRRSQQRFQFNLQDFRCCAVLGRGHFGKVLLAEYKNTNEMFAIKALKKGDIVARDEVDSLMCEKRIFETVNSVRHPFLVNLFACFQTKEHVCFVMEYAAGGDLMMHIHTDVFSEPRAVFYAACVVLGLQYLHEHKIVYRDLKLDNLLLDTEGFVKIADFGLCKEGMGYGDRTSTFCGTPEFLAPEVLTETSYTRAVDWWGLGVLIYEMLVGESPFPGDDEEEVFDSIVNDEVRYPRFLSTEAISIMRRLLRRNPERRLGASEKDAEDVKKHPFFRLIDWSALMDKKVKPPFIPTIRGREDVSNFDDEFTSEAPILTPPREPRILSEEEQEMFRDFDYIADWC
Method: Then, in order to test an HCV NS5B protein phosphorylation inhibition effect of the screened novel PRK2 inhibitor, in vitro kinase assay was carried out.
Using a recombinant active PRK2 and purified HCV NS5B protein as substrates, the screened inhibitors #11 and #17 were treated in the presence of gamma-^32P ATP and 100 μM ATP. The reaction mixture was separated by SDS-PAGE (8% gel), and a result thereof was checked by autoradiography.
Finally, PRK2 and HCV NS5B phosphorylation inhibition effects of the compounds #18, #19, #20, #21 and #22 as the derivatives of the compound #17 were analyzed through in vitro kinase assay.
A 1 μM recombinant PRK2 and 10 μM HCV NS5B were phosphorylated for 30 minutes in the presence of 10 μCi γ-^32P ATP and 100 μM ATP. The reaction mixture was separated by SDS-PAGE (8% gel), and a result thereof was checked by autoradiography.

## O=C1NCCCC1C(=O)Nc1ccncc1 (stereo not drawn) [compound #17, 2-oxo-N-4-pyridinyl-3-piperidinecarboxamide]
[1]; R-1 cell line, 20 μM
  decrease of HCV RNA titers with respect to DMSO control: about 50%
[1]; R-1 cell, 60 and 100 μM
  HCV RNA titers: decreased in a dosage-dependent manner
[2]
  HCV RNA titers: decreased in a dosage-dependent manner; also recorded: slightly higher in a cell infected with JFH-1 than in an HCV subgenomic replicon cell
R-1 cell
  activity of the cells (cytotoxicity): not greatly inhibited
Huh7 cell
  activity of the cells (cytotoxicity): not greatly inhibited
Recombinant active PRK2
  inhibition of in vitro phosphorylation of HCV NS5B protein: inhibit phosphorylation of HCV NS5B protein
